Reference: ChEMBL document CHEMBL5223107 (Bioorg Med Chem Lett, 2022)

Target: T1, Androgen receptor (Homo sapiens, UniProt P10275)
T1 sequence (P10275 whole entry): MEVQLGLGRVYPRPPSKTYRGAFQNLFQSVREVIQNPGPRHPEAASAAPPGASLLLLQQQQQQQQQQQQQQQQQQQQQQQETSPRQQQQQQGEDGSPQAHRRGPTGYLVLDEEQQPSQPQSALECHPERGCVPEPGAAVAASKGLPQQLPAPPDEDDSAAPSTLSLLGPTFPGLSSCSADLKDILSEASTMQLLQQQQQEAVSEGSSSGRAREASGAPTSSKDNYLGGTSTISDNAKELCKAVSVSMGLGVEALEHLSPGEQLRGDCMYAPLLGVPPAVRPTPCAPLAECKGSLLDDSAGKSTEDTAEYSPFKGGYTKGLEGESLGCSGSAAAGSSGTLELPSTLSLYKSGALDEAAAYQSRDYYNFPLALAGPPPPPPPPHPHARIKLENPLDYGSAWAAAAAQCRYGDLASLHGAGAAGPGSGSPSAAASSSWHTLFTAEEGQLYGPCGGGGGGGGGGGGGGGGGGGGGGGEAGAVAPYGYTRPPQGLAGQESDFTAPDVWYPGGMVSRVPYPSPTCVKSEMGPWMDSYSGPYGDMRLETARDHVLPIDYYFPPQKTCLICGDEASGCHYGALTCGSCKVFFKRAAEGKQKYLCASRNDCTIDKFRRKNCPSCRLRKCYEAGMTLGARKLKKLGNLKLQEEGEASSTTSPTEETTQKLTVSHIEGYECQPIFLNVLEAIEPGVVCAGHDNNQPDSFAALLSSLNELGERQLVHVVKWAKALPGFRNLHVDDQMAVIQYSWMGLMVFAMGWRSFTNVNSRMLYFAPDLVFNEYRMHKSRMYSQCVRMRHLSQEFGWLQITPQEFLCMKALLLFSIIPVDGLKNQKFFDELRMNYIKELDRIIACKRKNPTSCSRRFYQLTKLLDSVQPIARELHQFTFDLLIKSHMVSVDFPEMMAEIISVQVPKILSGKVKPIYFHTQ
Assay: Inhibition of androgen receptor in human LNCaP cells assessed as inhibition of AR transcription activity by dual-luciferase reporter assays
Assay type: cell-based
Details: not given

Row | SMILES | IC50 [µM]
1 | Cc1cc(COCc2ccccc2)c(C=O)c(O)c1O | > 5
2 | CC(C)=CCC/C(C)=C/COCc1cc(C)c(O)c(O)c1C=O | > 5
3 | Cc1c(O)c(O)c(C=O)c(COCc2cccc(F)c2)c1-c1ccc(F)cc1 | 2.58
4 | Cc1c(O)c(O)c(C=O)c(COCc2ccccc2)c1-c1cccc(Br)c1F | > 5
5 | Cc1c(O)c(O)c(C=O)c(COCc2ccccc2)c1-c1ccc(OC(F)(F)F)cc1 | 4.49
6 | CCc1cc(COCc2ccccc2)c(C=O)c(O)c1O | > 5
7 | Cc1c(O)c(O)c(C=O)c(COCc2ccccc2)c1-c1ccc(Cl)cc1 | 4.9
8 | C#CCOCc1c(C=O)c(O)c(O)c(C)c1-c1ccccc1 | > 5
9 | COc1cccc(COCc2c(C=O)c(O)c(O)c(C)c2-c2ccccc2)c1 | > 5
10 | CC(C)c1cc(COCc2ccccc2)c(C=O)c(O)c1O | > 5
11 | Cc1c(O)c(O)c(C=O)c(COCc2ccccc2)c1-c1cc(C(F)(F)F)cc(C(F)(F)F)c1 | 4.39
12 | Cc1c(O)c(O)c(C=O)c(COCc2ccccc2)c1-c1ccc(C(C)(C)C)cc1 | 3.51
13 | Cc1c(C)c(COCc2ccccc2)c(C=O)c(O)c1O | > 5
14 | Cc1c(O)c(O)c(C=O)c(CO[C@H]2CC[C@@]3(C)C(=CC[C@@H]4[C@@H]3CC[C@]3(C)C(=O)CC[C@@H]43)C2)c1-c1ccccc1 | 3.22
15 | Cc1c(O)c(O)c(C=O)c(COCc2ccccc2)c1-c1ccc(-c2ccccc2)cc1 | > 5
16 | Cc1ccccc1-c1c(C)c(O)c(O)c(C=O)c1COCc1ccccc1 | > 5
17 | Cc1c(O)c(O)c(C=O)c(COCc2ccccc2)c1-c1ccccc1OC(F)(F)F | > 5
18 | Cc1ccc(COCc2c(C=O)c(O)c(O)c(C)c2-c2ccccc2)cc1 | > 5
19 | Cc1c(O)c(O)c(C=O)c(COCc2ccccc2)c1-c1ccc(C(F)(F)F)cc1Cl | 3.25
20 | Cc1c(O)c(O)c(C=O)c(COCc2cccc(F)c2)c1-c1cccc(F)c1 | 2.89
21 | COc1ccccc1COCc1c(C=O)c(O)c(O)c(C)c1-c1ccccc1 | > 5
22 | Cc1c(O)c(O)c(C=O)c(COCc2ccccc2)c1-c1ccccc1 | > 5
23 | Cc1c(O)c(O)c(C=O)c(COCc2ccccc2)c1-c1ccc(C(F)(F)F)cc1Br | 4.08
24 | Cc1c(O)c(O)c(C=O)c(COCc2ccccc2)c1-c1ccc([N+](=O)[O-])cc1 | 3.74
25 | COc1ccc(-c2c(C)c(O)c(O)c(C=O)c2COCc2ccccc2)cc1 | > 5
26 | Cc1c(O)c(O)c(C=O)c(COCc2ccccc2)c1CO[Si](C)(C)C | > 5

Row | SMILES | IC50 [µM]
27 | Cc1c(O)c(O)c(C=O)c(COCc2ccccc2C(F)(F)F)c1-c1cccc(F)c1 | > 5
28 | Cc1c(O)c(O)c(C=O)c(COCc2ccc(OC(F)(F)F)cc2)c1-c1ccccc1 | 2.72
29 | Cc1c(O)c(O)c(C=O)c(COCc2ccccc2)c1-c1cccs1 | > 5
30 | Cc1c(O)c(O)c(C=O)c(COCc2ccccc2)c1-c1ccccc1C#N | > 5
31 | COc1ccc(COCc2cc(C)c(O)c(O)c2C=O)cc1 | > 5
32 | Cc1c(O)c(O)c(C=O)c(COCc2ccccc2F)c1-c1ccc(F)cc1 | > 5
33 | Cc1c(O)c(O)c(C=O)c(COCc2ccccc2)c1-c1ccc(Br)cc1 | 3.47
34 | Cc1c(O)c(O)c(C=O)c(COCc2ccccc2)c1-c1ccc(F)cc1Cl | > 5
35 | C=C(C)Cc1c(C)c(O)c(O)c(C=O)c1COCc1ccccc1 | > 5
36 | COc1ccccc1-c1c(C)c(O)c(O)c(C=O)c1COCc1ccccc1 | > 5
37 | Cc1c(O)c(O)c(C=O)c(COCc2ccccc2)c1-c1ccccc1C(F)(F)F | > 5
38 | Cc1c(O)c(O)c(C=O)c(COCc2ccccc2)c1-c1ccc(Br)cc1F | 3.39
39 | Cc1cccc(COCc2c(C=O)c(O)c(O)c(C)c2-c2ccccc2)c1 | 4.53
40 | Cc1c(O)c(O)c(C=O)c(COCc2ccccc2)c1-c1ccc(F)c(F)c1 | 2.05
41 | Cc1c(O)c(O)c(C=O)c(COCc2ccccc2)c1-c1ccccc1Br | > 5
42 | Cc1c(O)c(O)c(C=O)c(COCc2ccccc2)c1-c1ccc(Cl)cc1C(F)(F)F | > 5
43 | Cc1cccc(-c2c(C)c(O)c(O)c(C=O)c2COCc2ccccc2)c1 | > 5
44 | Cc1c(O)c(O)c(C=O)c(COCc2ccccc2F)c1-c1ccccc1 | > 5
45 | Cc1c(O)c(O)c(C=O)c2c1C(C#Cc1ccc(Br)cc1)CC2 (stereo not drawn) | > 5
46 | Cc1c(O)c(O)c(C=O)c(COCc2ccc(F)cc2)c1-c1ccc(F)cc1 | 2.41
47 | CCc1c(O)c(O)c(C=O)c(COCc2ccccc2)c1-c1ccccc1 | > 5
48 | C=CCc1c(C)c(O)c(O)c(C=O)c1COCc1ccccc1 | > 5
49 | Cc1c(O)c(O)c(C=O)c(COCc2ccccc2)c1-c1ccc(F)cc1F | 2.3
50 | Cc1c(O)c(O)c(C=O)c(COCc2ccc(F)cc2)c1-c1ccc(C(F)(F)F)cc1 | 2.14
51 | Cc1c(O)c(O)c(C=O)c(COCc2ccccc2F)c1-c1cccc(F)c1 | > 5
52 | Cc1cc(CO[C@H]2CC[C@@]3(C)C(=CC[C@@H]4[C@@H]3CC[C@]3(C)C(=O)CC[C@@H]43)C2)c(C=O)c(O)c1O | > 5

Row | SMILES | IC50 [µM]
53 | Cc1c(O)c(O)c(C=O)c(COCc2ccccc2)c1-c1ccc(C(F)(F)F)cc1 | 1.23
54 | Cc1c(O)c(O)c(C=O)c(COCc2ccccc2)c1-c1ccc(Cl)cc1Br | > 5
55 | COC(=O)c1ccc(-c2c(C)c(O)c(O)c(C=O)c2COCc2ccccc2)cc1 | 4.23
56 | Cc1c(O)c(O)c(C=O)c2c1C1(CC2)c2ccccc2-c2ccccc21 | > 5
57 | Cc1c(O)c(O)c(C=O)c(COCc2cccc(F)c2)c1-c1ccccc1 | 4.05
58 | Cc1c(O)c(O)c(C=O)c(COCc2ccccc2)c1-c1ccc(F)cc1 | > 5
59 | Cc1c(O)c(O)c(C=O)c(COCc2ccccc2C(F)(F)F)c1-c1ccccc1 | 2.54
60 | Cc1c(O)c(O)c(C=O)c(COCc2ccccc2)c1-c1cccc2ccccc12 | > 5
61 | Cc1c(O)c(O)c(C=O)c(COCc2ccc(F)cc2)c1-c1cccc(F)c1 | 2.09
62 | Cc1c(O)c(O)c(C=O)c(COCc2ccccc2)c1-c1ccccc1Cl | > 5
63 | Cc1c(O)c(O)c(C=O)c(COCc2ccccc2F)c1-c1ccc(C(F)(F)F)cc1 | 2.52
64 | Cc1c(O)c(O)c(C=O)c(CSCCC(C)C)c1-c1ccccc1 | > 5
65 | Cc1cc(C)cc(-c2c(C)c(O)c(O)c(C=O)c2COCc2ccccc2)c1 | > 5
66 | Cc1c(O)c(O)c(C=O)c(COCc2ccc(F)cc2)c1-c1ccccc1 | 2.38
67 | Cc1c(O)c(O)c(C=O)c(COCc2cccc(F)c2)c1-c1ccc(C(F)(F)F)cc1 | 2.09
68 | C=CCc1c(C)c(O)c(O)c(C=O)c1COCc1ccc(OC)cc1 | > 5
69 | Cc1c(O)c(O)c(C=O)c(COCc2cccc(C(F)(F)F)c2)c1-c1ccccc1 | 3.05
70 | Cc1c(O)c(O)c(C=O)c(COCc2cccc3ccccc23)c1-c1ccccc1 | > 5
71 | Cc1c(O)c(O)c(C=O)c2c1[C@@H](c1ccc(C(=O)O[C@H]3CC[C@@]4(C)C(=CC[C@H]5[C@@H]6CC[C@H]([C@H](C)CCCC(C)C)[C@@]6(C)CC[C@@H]54)C3)cc1)CC2 | > 5
72 | Cc1c(O)c(O)c(C=O)c(COCc2ccc(C(F)(F)F)cc2)c1-c1ccccc1 | 3.32
73 | Cc1ccc(F)cc1-c1c(C)c(O)c(O)c(C=O)c1COCc1ccccc1 | > 5
74 | Cc1ccc(-c2c(C)c(O)c(O)c(C=O)c2COCc2ccccc2)cc1 | 3.27
75 | Cc1c(O)c(O)c(C=O)c(COCc2cccc(Cl)c2Cl)c1-c1ccccc1 | 2.81
76 | Cc1c(O)c(O)c(C=O)c(COCc2ccccc2)c1-c1ccc(Br)c(F)c1 | 2.19
77 | Cc1c(O)c(O)c(C=O)c(COCc2ccccc2)c1-c1cc(F)ccc1F | > 5

System: CWR22R
Assay: Antiproliferative activity against human 22Rv1 cells assessed as cell growth inhibition incubated for 72 hrs by MTT assay
Assay type: functional, cell-based
Details: 22Rv1, 72 h

Row | SMILES | IC50 [µM]
78 | CNC(=O)c1ccc(N2C(=S)N(c3ccc(C#N)c(C(F)(F)F)c3)C(=O)C2(C)C)cc1F [ENZALUTAMIDE] | 46.3
